# Measurements from patent US20260258083A1, “T Cell Engager Masking Molecules” (AMGEN INC., priority 2023, published 2026).
# Where no end group is shown, it is not given here. Side-chain parts run from the residue outwards. [ ]: non-standard residue; d: D form. maleimide = maleimide-thiosuccinimide linker; pGlu = O=C1CC[C@@H](C(=O)O)N1; PEG = not defined here
# Columns and labels:
# [1] = system: FLT3×CD3 TCE (SEQ ID NO: 93); experiment: Association kinetics by KinExA (Table 5); format: binding; details: KinExA, FLT3×CD3 TCE
# Procedure: • 1. Preparation of NHS-activated sepharose fast-flow beads: • 2. Fast flow sepharose suspension in 100% IPA, washed twice with milliQ H20, mild centrifugation to pool beads in between wash steps. • 3. Equilibrated in 0.15 M NaBO3, pH=8.5 buffer • 4. Added 80 mM PDEA to activate the resin for thiol exchange, 10 mins, r.t. • 5. Equilibrated resin with Hepes Buffered Saline-P (0.01 M HEPES pH 7.4, 0.15 M NaCl, 0.005% v/v Surfactant P2), pH 7.4 binding buffer • 6. Added 30 μg/mL of binding peptide, […] (SEQ ID NO; 297) or pGlu-[…] (SEQ ID NO: 300), reaction for 1 hr to functionalize resin. • 7. Quench with 10 mM L-Cys for 1 hour. • 8. Constant Binding Partner was FLT3×CD3 TCE (SEQ ID NO: 93), MW 105720, 3.2 mg/mL 31.21 uM was diluted to 333 pM and the pGlu-[…] peptide or pGlu-[…]-PEG (Pep-PEG v2) were titrated from 1 uM or 400 nM down to 2.3 pM concentrations relative to effective peptide molarity.
# Association Kinetics by KinExA
# [2] = Mouse pharmacokinetic study, IV (Example 2); details: BL/6 mice, IV, 0.82 or 8.2 mg/kg, plasma total intact peptide
# Procedure: Example 2: Mouse Pharmacokinetic Study to Evaluate In Vivo PK
# The 4-arm 20 kDa PepPOL conjugate was dosed by IV administration to BL/6 mice at 0.82 or 8.2 mg/kg dose levels. […] The PK profiles for each peptide were evaluated by quantifying plasma concentrations of total intact peptide material over time (see methods).
# [3] = 2nd mouse PK study, IV bolus (Example 3); format: in vivo; details: BL/6 mice, IV bolus 5 mg/kg, plasma
# Procedure: Example 3: 2nd Mouse PK Study
# A second PK study was conducted in BL/6 mice to evaluate the plasma pharmacokinetics of the masking peptide in 8-arm (octavalent), 40 kDa PEG form. Both CD3ε PepPOL, v1 (40 kDa) and CD3ε PepPOL, v1 (20 kDa) (see Table 6 for sequences) were administered to mice by IV bolus at 5 mg/kg dose level and the results are shown in Fig. XX. […] The terminal elimination half-lives were estimated to be between 90 min and 120 min for the 20 kDa or 40 kDa CD3ε PepPOL, v1 forms, respectively.
# [4] = system: muCD19 TCE; experiment: muCD19 TCE + CD3ε PepPOL, v1 co-administration pilot study, cytokines and CD19+ B cell depletion (Example 6); format: in vivo, huCD3ε TCR KI mice; details: ≥1000× molar overage with 100 μg/kg muCD19 TCE
# Procedure: Example 6: Study muCD19 TCE+CD3ε PepPOL, v1 Co-Administration in huCD3ε TCR KI Mouse Model. 100 ug/kg IV Dose Murine Anti-muCD19 TCE Investigated >2300X
# An initial pilot study in huCD3ε TCR KI mice was conducted to establish the desired PD effect with CD3ε PepPol v1. Here, CD3ε PepPol, v1 was co-administered at ≥1000× molar overage (peptide:TCE) with 100 μg/kg muCD19 TCE.
# [5] = system: anti-CD3ε paratope of a CD3ε binding domain of a TCE; experiment: Affinity class of the binding peptide of the masking molecule
# Text: The exact value may vary with the respective TCE. However, the […]
# [6] = system: CDH3×MSLN dual targeting TCE with two CD3e binders (SEQ ID NO 255); experiment: TDCC assay, inhibition of cytotoxicity (Example 15); format: cell-based; details: same peptide concentration; PBMC E:T 10:1, 48 or 72 hours
# Procedure: Example 15: TCE Masking Molecule Inhibition of Cytotoxicity and Cytokine Release of Representative CDH3×MSLN Dual Targeting TCE with Two CD3e Binders (SEQ ID NO 255)
# In vitro potency of CD3e pepPEG was indirectly assessed by measuring in vitro activity of T cell engager (TCE) using T cell dependent cellular cytotoxicity (TDCC) assay. Either 100 pM or 300 pM of TCE was mixed with increasing concentrations of CD3e pepPEG before the mixture is treated to cells. Peripheral blood mononuclear cells (PBMCs) as effector cells were co-cultured with tumor target cells at an effector cell-to-target cell ratio of 10:1 in the presence of mixture of TCE and CD3e pepPEG for 48 hours or 72 hours at 37° C. Cytotoxicity of TCE was assessed by Steady-Glo (Promega) for luciferase-tagged target cells and CellTiter-Glo (Promega) for non-luciferase-tagged target cells after plates were washed to eliminate T cells. Specific cytotoxicity curves and EC50 values were derived using Prism 7.04 (GraphPad). Cytokine production was assessed in supernatants from TDCC assays using electro-chemiluminescence assays (MesoScale Discovery).
# [7] = system: STEAP1×CD3e heterodimeric TCE; experiment: T cell dependent cellular cytotoxicity (TDCC) assay, inhibition of TCE cytotoxicity; format: cell-based; details: STEAP1×CD3, CLDN6×CD3 and DLL3×CD3 TCE; PBMC E:T 10:1, 48 hours
# Procedure: Example 12: In Vitro Cytotoxicity and Cytokine Release Inhibition by Binding Peptides
# In vitro potency of CD3e pepPEG was indirectly assessed by measuring in vitro activity of T cell engager (TCE) using T cell dependent cellular cytotoxicity (TDCC) assay. […] Cytokine production was assessed in supernatants from TDCC assays using electro-chemiluminescence assays (MesoScale Discovery).
# [8] = system: Steap 1xCD3 TCE SEQ ID NO 373 + 374 + 375; experiment: SPR assay of immobilized peptides binding with TCE; details: immobilized peptide, Kinetic 1:1 Binding
# Procedure: (§1) Example 14: SPR Assay of Immobilized Peptides Binding with TCE
# (§2) A cytiva CM5 chip was first functionalized with PDEA (2-(2pyridinyldithio)ethaneamine) under standard ((1-ethyl-3-(3-dimethylaminopropyl)carbodiimide)/(N-hydroxysuccinimide) EDC/NHS coupling conditions where the PDEA is dissolved to 20 mM and 1 M NaCl in 0.1 M sodium acetate pH 4.3. Binding peptides were dissolved to 50- or 100-ug/mL respectively in PBST, pH 6.5, and coupling times were optimized to yield the desired surface density.
# [9] = system: FLT3xCD3 TCE SEQ ID NO 93; experiment: SPR assay of immobilized peptides binding with TCE; details: immobilized peptide, Kinetic 1:1 Binding
# Procedure: as §1, §2
# [10] = system: DLL3xCD3 TCE SEQ ID NO 104; experiment: SPR assay of immobilized peptides binding with TCE; details: immobilized peptide, Kinetic 1:1 Binding
# Procedure: as §1, §2
# [11] = system: FLT3xCD3 TCE; experiment: SPR solution assay of competition binding with TCE; details: FLT3×CD3 TCE and STEAP1×CD3 TCE
# Procedure: SPR Solution Assay of Competition Binding with TCE
# As it can be derived from table 6,
# A high affinity SPR ‘capture’ surface was first constructed to facilitate the SPR analysis of pre-equilibrated peptide analyte+TCE solutions. Briefly, a Cytiva CM5 chip was functionalized with PDEA (2-(2-pyridinyldithio)ethaneamine) under standard EDC/NHS coupling conditions where the PDEA is dissolved to 20 mM 2-(2-pyridinyldithio)ethaneamine and 1 M NaCl in 0.1 M sodium acetate pH 4.3, 6 peptide including p[…] (ID 14974, SEQ ID NO 304) were tested:
# Respective peptide was dissolved to between 50 and 100-ug/mL for injection over the activated CM5 surface in PBST, pH 6.5, and coupling times were optimized to yield the desired surface density (~300RU).
# For the binding assessment, Individual binding isotherms were constructed by titrating the respective peptide of interest into a fixed concentration of TCE-containing solution in PBST. At least 4 hrs equilibration time were allotted (r.t.) prior to analysis by SPR. For the analysis, a calibration curve was first constructed of the TCE analyte being assessed. For analysis of the TCE+peptide mixtures, the samples were injected (10 uL/min) over the previously prepared capture surface for 90 seconds, where the SPR response (RU) was recorded at the end of the injection and referenced to the previously prepared standard curve to derive an estimate of the ‘free’ TCE concentration in the presence of peptide analyte. The ‘free’ TCE concentration measured was plotted as a function of log peptide concentration and fit using non-linear regression analysis to a 4 parameter logistic function to derive an IC50.
# [12] = masking molecules tested with respect to TCE of SEQ ID NO 255 (Table 20)
# [13] = masking molecules of Example 12
# Sequence of CDH3×MSLN dual targeting TCE with two CD3e binders (SEQ ID NO 255) (as listed by the source): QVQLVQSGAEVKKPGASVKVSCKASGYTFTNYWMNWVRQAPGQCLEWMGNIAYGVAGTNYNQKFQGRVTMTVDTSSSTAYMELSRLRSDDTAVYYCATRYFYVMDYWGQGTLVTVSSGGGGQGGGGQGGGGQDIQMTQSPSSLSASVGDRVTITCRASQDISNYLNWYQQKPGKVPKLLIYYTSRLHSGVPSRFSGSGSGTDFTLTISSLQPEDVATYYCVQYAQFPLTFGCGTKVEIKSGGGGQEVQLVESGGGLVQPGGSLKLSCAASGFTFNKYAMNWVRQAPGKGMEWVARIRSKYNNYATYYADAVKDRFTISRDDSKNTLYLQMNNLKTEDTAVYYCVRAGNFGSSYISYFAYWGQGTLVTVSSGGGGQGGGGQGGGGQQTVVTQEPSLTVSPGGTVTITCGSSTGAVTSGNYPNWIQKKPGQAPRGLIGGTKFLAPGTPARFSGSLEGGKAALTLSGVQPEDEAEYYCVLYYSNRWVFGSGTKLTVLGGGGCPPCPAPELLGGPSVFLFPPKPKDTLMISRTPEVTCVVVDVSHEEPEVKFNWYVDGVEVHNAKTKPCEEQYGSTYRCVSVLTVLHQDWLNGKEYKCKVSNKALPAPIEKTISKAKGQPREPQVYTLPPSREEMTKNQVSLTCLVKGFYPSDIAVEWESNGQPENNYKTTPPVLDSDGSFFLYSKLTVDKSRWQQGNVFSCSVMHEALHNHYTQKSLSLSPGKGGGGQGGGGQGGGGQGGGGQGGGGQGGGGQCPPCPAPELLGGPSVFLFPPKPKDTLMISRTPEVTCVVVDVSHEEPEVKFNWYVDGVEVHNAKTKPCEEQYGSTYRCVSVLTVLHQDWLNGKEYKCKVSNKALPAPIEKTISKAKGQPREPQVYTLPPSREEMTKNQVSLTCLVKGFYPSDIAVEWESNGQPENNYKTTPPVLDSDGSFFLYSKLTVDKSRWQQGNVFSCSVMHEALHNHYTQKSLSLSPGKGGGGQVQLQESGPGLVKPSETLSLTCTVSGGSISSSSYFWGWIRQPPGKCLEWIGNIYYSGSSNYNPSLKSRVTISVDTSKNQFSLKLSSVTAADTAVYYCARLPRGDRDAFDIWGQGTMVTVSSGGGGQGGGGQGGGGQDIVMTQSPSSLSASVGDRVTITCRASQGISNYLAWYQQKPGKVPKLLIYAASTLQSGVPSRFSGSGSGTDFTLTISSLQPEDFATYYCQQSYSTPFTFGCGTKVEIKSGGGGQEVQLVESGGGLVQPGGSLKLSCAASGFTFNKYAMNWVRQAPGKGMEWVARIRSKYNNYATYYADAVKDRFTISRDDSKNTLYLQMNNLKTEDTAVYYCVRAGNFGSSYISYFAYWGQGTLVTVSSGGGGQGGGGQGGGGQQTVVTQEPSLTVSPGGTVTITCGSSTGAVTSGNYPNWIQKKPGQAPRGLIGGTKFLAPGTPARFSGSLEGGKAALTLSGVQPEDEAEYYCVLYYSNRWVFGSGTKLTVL
# Sequence of FLT3xCD3 TCE SEQ ID NO 93 (as listed by the source): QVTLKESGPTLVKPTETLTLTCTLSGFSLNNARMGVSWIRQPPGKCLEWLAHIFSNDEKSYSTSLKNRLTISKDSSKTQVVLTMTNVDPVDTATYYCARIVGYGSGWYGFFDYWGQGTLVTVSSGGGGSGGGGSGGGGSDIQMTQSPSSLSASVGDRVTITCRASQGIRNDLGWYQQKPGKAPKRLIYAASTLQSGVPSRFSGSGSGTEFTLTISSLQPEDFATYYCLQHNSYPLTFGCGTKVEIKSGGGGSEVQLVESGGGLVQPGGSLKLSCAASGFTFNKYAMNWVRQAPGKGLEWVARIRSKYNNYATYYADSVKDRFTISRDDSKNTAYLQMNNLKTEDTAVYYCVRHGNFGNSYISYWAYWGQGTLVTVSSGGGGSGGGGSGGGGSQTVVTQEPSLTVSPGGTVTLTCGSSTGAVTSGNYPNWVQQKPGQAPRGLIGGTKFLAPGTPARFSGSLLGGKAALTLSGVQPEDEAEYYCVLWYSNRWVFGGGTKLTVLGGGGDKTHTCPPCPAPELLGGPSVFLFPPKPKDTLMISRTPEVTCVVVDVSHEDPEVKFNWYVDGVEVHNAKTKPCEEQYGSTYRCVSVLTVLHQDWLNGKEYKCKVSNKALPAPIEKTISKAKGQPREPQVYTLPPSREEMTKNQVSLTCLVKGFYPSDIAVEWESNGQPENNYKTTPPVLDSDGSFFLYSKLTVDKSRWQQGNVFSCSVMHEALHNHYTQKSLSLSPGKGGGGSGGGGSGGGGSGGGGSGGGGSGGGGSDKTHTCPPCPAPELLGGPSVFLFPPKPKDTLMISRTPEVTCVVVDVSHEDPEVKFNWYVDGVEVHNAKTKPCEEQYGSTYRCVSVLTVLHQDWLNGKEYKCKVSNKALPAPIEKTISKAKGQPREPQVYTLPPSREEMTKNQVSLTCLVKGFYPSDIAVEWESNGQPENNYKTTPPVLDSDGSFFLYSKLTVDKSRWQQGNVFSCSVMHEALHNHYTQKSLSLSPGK
# Sequence of STEAP1×CD3e heterodimeric TCE (as listed by the source): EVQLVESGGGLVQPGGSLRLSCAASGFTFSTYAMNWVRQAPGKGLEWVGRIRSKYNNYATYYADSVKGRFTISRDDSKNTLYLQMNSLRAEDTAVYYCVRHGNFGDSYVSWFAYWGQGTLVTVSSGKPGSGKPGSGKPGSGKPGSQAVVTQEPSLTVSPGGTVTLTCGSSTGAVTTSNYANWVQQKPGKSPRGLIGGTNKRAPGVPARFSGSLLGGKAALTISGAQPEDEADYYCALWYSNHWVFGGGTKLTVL
# Sequence of DLL3xCD3 TCE SEQ ID NO 104 (as listed by the source): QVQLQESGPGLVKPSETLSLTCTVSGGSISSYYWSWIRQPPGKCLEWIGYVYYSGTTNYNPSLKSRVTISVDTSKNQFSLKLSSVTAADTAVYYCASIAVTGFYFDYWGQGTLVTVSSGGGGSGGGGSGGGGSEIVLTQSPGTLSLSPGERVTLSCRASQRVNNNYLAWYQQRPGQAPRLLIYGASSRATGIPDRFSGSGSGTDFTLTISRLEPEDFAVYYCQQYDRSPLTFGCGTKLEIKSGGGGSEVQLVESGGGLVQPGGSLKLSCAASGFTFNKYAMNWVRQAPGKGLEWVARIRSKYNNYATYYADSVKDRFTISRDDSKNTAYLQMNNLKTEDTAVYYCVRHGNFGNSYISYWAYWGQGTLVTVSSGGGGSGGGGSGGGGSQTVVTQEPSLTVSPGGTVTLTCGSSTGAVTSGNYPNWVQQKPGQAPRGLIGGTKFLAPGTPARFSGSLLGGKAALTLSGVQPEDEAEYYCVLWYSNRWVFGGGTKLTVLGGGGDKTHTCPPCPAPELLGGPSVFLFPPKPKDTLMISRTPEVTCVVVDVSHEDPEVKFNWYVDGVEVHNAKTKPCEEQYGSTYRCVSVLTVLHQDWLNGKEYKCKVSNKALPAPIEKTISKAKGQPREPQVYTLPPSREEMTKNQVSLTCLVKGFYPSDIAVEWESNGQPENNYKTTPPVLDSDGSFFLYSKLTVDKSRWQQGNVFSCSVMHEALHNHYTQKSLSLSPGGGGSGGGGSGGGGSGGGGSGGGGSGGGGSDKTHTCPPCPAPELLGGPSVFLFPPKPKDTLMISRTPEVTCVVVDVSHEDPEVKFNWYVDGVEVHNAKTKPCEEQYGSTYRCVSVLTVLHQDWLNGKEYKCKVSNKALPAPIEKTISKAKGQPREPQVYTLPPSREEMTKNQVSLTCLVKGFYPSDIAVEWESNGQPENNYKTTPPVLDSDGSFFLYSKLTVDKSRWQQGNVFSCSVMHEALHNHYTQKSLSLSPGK
# Sequence of Steap 1xCD3 TCE SEQ ID NO 373 + 374 + 375 (as listed by the source): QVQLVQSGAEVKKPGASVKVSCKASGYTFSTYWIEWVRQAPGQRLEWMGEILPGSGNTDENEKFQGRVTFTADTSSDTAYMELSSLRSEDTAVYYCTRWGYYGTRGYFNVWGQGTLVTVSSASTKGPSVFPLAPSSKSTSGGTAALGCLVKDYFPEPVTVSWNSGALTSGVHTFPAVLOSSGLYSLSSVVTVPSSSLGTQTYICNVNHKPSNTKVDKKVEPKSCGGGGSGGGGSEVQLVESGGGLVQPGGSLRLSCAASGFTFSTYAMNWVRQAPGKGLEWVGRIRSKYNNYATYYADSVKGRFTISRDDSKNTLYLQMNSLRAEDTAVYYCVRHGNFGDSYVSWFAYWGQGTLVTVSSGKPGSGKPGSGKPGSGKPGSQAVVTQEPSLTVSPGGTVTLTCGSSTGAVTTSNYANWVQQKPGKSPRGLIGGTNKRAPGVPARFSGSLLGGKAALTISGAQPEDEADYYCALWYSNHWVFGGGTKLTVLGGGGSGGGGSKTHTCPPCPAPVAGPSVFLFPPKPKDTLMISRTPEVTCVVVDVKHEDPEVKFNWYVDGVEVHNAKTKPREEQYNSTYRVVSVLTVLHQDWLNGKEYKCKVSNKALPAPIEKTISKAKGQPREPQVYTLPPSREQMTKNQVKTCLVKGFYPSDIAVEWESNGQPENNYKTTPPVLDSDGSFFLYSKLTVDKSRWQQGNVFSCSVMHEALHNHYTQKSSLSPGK
# Sequence of Steap 1xCD3 TCE SEQ ID NO 373 + 374 + 375 (as listed by the source partner): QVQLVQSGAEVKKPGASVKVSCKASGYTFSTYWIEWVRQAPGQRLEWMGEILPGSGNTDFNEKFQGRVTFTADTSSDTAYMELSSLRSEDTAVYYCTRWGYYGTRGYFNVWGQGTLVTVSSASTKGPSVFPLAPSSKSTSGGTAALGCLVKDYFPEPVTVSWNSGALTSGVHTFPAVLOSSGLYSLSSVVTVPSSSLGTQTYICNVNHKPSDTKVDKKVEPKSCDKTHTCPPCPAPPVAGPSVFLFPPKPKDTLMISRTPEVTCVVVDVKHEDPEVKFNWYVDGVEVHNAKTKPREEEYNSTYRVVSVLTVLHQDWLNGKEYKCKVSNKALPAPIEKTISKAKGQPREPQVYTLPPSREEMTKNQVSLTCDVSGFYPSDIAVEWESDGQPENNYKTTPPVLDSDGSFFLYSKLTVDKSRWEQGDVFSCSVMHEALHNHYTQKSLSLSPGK
# Sequence of Steap 1xCD3 TCE SEQ ID NO 373 + 374 + 375 (as listed by the source partner): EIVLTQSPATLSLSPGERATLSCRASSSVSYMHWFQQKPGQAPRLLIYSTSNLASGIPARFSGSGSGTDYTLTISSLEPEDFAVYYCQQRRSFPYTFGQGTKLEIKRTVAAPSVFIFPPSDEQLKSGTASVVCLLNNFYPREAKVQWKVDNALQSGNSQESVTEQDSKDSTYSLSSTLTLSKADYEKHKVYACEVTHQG
substance,measurement,setting,value
(QDGNEEMGKGMEENGDQC)4 - PEG(20 kDa) (also: four copies conjugated to PEG 20 kDa),koff,[1],0.0047 s⁻¹
same,terminal elimination half-life,[2],~1.47 h
same,terminal elimination half-lives,[3],~90 min
same,PD effect with respect to CD19+ B cell depletion,[4],retained a greater degree of PD effect
same,impact on cytokine reduction,[4],cytokine reduction can be seen
pE-DGEEELKGC (PEG)-NH2 [79676-1] ([pGlu]DGEEELKGC(PEG)-NH2; not fully specified; printed as pE-DGEEELKGC (PEG)-NH2; reading uncertain; also: PEG type and size not given here),Affinity,[5]; [12],Intermediote
same,"inhibition of cytotoxicity, in vitro potency (FIG. 20)",[6],comparable results among each other
"pE-DGEEELKGC (PEG)-NH2 [79677-1] ([pGlu]DGEEELKGC([maleimide-4‑arm PEG 5 kDa])-NH2; also: 4-arm PEG conjugate, number of peptide copies not given here)",Affinity,[5]; [12],"Intermediate (an affinity of about 10 to 150, preferably 10 to 100 mM is considered of “high” affinity)"
same,"inhibition of cytotoxicity, in vitro potency (FIG. 20)",[6],comparable results among each other
pE-DGNEELKGC (PEG)-NH2 [79674-1] ([pGlu]DGNEELKGC(PEG)-NH2; not fully specified; printed as pE-DGNEELKGC (PEG)-NH2; reading uncertain; also: PEG type and size not given here),inhibition activity against TCE cytotoxicity (FIG. 15),[7],highest inhibition activity
same,Affinity,[5]; [13],"High (an affinity indicated as Kd of about 0.05 to about 10 nM, typically 0.1 pM to 10 nM or 500 pM to 5 nM is considered of “high” affinity)"
same,Affinity,[5]; [12],"High (an affinity indicated as Kd of about 0.05 to about 10 nM, typically 0.1 pM to 10 nM or 500 pM to 5 nM is considered of “high” affinity)"
"pE-DGNEELKGC (PEG)-NH2 [79675-1] ([pGlu]DGNEELKGC-NH2; also: PEG attached, size and site not given here in name)",inhibition activity against TCE cytotoxicity (FIG. 15),[7],highest inhibition activity
same,Affinity,[5]; [13],"High (an affinity indicated as Kd of about 0.05 to about 10 nM, typically 0.1 pM to 10 nM or 500 pM to 5 nM is considered of “high” affinity)"
same,Affinity,[5]; [12],"High (an affinity indicated as Kd of about 0.05 to about 10 nM, typically 0.1 pM to 10 nM or 500 pM to 5 nM is considered of “high” affinity)"
pE-DGNEELKGK (mPEG)-OH ([pGlu]DGNEELKGK([acetamide‑thioether-mPEG 20 kDa])-OH) [73136-2],Affinity,[5]; [13],"High (an affinity indicated as Kd of about 0.05 to about 10 nM, typically 0.1 pM to 10 nM or 500 pM to 5 nM is considered of “high” affinity)"
same,Affinity,[5]; [12],"High (an affinity indicated as Kd of about 0.05 to about 10 nM, typically 0.1 pM to 10 nM or 500 pM to 5 nM is considered of “high” affinity)"
same,"inhibition of cytotoxicity, in vitro potency (FIG. 20)",[6],comparable results among each other
pGlu-DGTEELKGC ([pGlu]DGTEELKGC),ka,[8],2.09e+06 M⁻¹ s⁻¹
same,kd,[8],0.0734 s⁻¹
same,ka,[9],3.21e+06 M⁻¹ s⁻¹
same,kd,[9],0.0285 s⁻¹
same,ka,[10],4.81e+06 M⁻¹ s⁻¹
same,kd,[10],0.0713 s⁻¹
same,reduction in IC50 (FIG. 19),[11],negative example
